# Tested on: FLK-1 receptor
# Test: FLK-1 Assay (cellular/catalytic ELISA, VEGF-stimulated phosphotyrosine)
# Format: cell-based
# Parameters: concentration or dose not given beside the values
# Method in brief: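 Receptor phosphotyrosine ELISA: Flk-1-expressing NIH3T3 C7#3 cells, starved overnight in 0.1% FBS medium, received compound (1:200 final dilution, 0.5% DMSO) for 2 h at 37 °C, then VEGF. Anti-FLK-1-captured receptor was probed with anti-phosphotyrosine UB40 and peroxidase/ABTS read-out, relative to cells without compound.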
row,SMILES,Flk Kinase % Inhibition (P.110)
1,O=C1Nc2ccc(I)cc2C1=Cc1ccc(-c2ccccc2)cc1 [10735/B11],15.7%
2,Cc1ccccc1C=C1C(=O)Nc2ccc(Br)c(C)c21 [10735/C02],0.1%
3,Cc1c(Br)ccc2c1C(=Cc1ccc(F)c(F)c1)C(=O)N2 [10735/C03],0.9%
4,Cc1c(Br)ccc2c1C(=Cc1cc(F)cc(F)c1)C(=O)N2 [10735/C04],17.2%
5,Cc1c(Br)ccc2c1C(=Cc1cccc(C(F)(F)F)c1)C(=O)N2 [10735/C05],11.2%
6,Cc1c(Br)ccc2c1C(=Cc1cc(C(F)(F)F)cc(C(F)(F)F)c1)C(=O)N2 [10735/C06],18.2%
7,Cc1c(Br)ccc2c1C(=Cc1ccccc1C#N)C(=O)N2 [10735/C07],9.6%
8,Cc1c(Br)ccc2c1C(=Cc1c(F)cccc1F)C(=O)N2 [10735/C08],10.1%
9,Cc1c(Br)ccc2c1C(=Cc1cccc3ccccc13)C(=O)N2 [10735/C09],24.5%
10,Cc1c(Br)ccc2c1C(=Cc1ccc(Cl)cc1Cl)C(=O)N2 [10735/C10],21.0%
11,Cc1c(Br)ccc2c1C(=Cc1ccc(-c3ccccc3)cc1)C(=O)N2 [10735/C11],18.6%
12,CNS(=O)(=O)c1ccc2c(c1)C(=Cc1ccccc1C)C(=O)N2 [10735/D02],0.9%
13,CNS(=O)(=O)c1ccc2c(c1)C(=Cc1ccc(F)c(F)c1)C(=O)N2 [10735/D03],4.5%
14,CNS(=O)(=O)c1ccc2c(c1)C(=Cc1cc(F)cc(F)c1)C(=O)N2 [10735/D04],9.1%
15,CNS(=O)(=O)c1ccc2c(c1)C(=Cc1cccc(C(F)(F)F)c1)C(=O)N2 [10735/D05],29.5%
16,CNS(=O)(=O)c1ccc2c(c1)C(=Cc1cc(C(F)(F)F)cc(C(F)(F)F)c1)C(=O)N2 [10735/D06],16.2%
17,CNS(=O)(=O)c1ccc2c(c1)C(=Cc1ccccc1C#N)C(=O)N2 [10735/D07],21.6%
18,CNS(=O)(=O)c1ccc2c(c1)C(=Cc1c(F)cccc1F)C(=O)N2 [10735/D08],21.6%
19,CNS(=O)(=O)c1ccc2c(c1)C(=Cc1cccc3ccccc13)C(=O)N2 [10735/D09],22.6%
20,CNS(=O)(=O)c1ccc2c(c1)C(=Cc1ccc(Cl)cc1Cl)C(=O)N2 [10735/D10],15.1%
21,CNS(=O)(=O)c1ccc2c(c1)C(=Cc1ccc(-c3ccccc3)cc1)C(=O)N2 [10735/D11],25.1%
22,Cc1ccccc1C=C1C(=O)Nc2ccc(S(=O)(=O)Nc3ccc(C(F)(F)F)cc3)cc21 [10735/E02],−2.0%
23,O=C1Nc2ccc(S(=O)(=O)Nc3ccc(C(F)(F)F)cc3)cc2C1=Cc1ccc(F)c(F)c1 [10735/E03],5.1%

row,SMILES,Flk Kinase % Inhibition (P.110)
1,O=C1Nc2ccc(S(=O)(=O)Nc3ccc(C(F)(F)F)cc3)cc2C1=Cc1cc(F)cc(F)c1 [10735/E04],12.2%
2,O=C1Nc2ccc(S(=O)(=O)Nc3ccc(C(F)(F)F)cc3)cc2C1=Cc1cccc(C(F)(F)F)c1 [10735/E05],14.7%
3,O=C1Nc2ccc(S(=O)(=O)Nc3ccc(C(F)(F)F)cc3)cc2C1=Cc1cc(C(F)(F)F)cc(C(F)(F)F)c1 [10735/E06],23.8%
4,N#Cc1ccccc1C=C1C(=O)Nc2ccc(S(=O)(=O)Nc3ccc(C(F)(F)F)cc3)cc21 [10735/E07],16.1%
5,O=C1Nc2ccc(S(=O)(=O)Nc3ccc(C(F)(F)F)cc3)cc2C1=Cc1c(F)cccc1F [10735/E08],14.4%
6,O=C1Nc2ccc(S(=O)(=O)Nc3ccc(C(F)(F)F)cc3)cc2C1=Cc1cccc2ccccc12 [10735/E09],29.6%
7,O=C1Nc2ccc(S(=O)(=O)Nc3ccc(C(F)(F)F)cc3)cc2C1=Cc1ccc(Cl)cc1Cl [10735/E10],10.2%
8,O=C1Nc2ccc(S(=O)(=O)Nc3ccc(C(F)(F)F)cc3)cc2C1=Cc1ccc(-c2ccccc2)cc1 [10735/E11],21.9%
9,Cc1ccccc1C=C1C(=O)Nc2ccc(S(=O)(=O)N3CCOCC3)cc21 [10735/F02],2.1%
10,O=C1Nc2ccc(S(=O)(=O)N3CCOCC3)cc2C1=Cc1ccc(F)c(F)c1 [10735/F03],11.0%
11,O=C1Nc2ccc(S(=O)(=O)N3CCOCC3)cc2C1=Cc1cc(F)cc(F)c1 [10735/F04],16.4%
12,O=C1Nc2ccc(S(=O)(=O)N3CCOCC3)cc2C1=Cc1cccc(C(F)(F)F)c1 [10735/F05],30.2%
13,O=C1Nc2ccc(S(=O)(=O)N3CCOCC3)cc2C1=Cc1cc(C(F)(F)F)cc(C(F)(F)F)c1 [10735/F06],16.7%
14,N#Cc1ccccc1C=C1C(=O)Nc2ccc(S(=O)(=O)N3CCOCC3)cc21 [10735/F07],34.0%
15,O=C1Nc2ccc(S(=O)(=O)N3CCOCC3)cc2C1=Cc1c(F)cccc1F [10735/F08],10.7%
16,O=C1Nc2ccc(S(=O)(=O)N3CCOCC3)cc2C1=Cc1cccc2ccccc12 [10735/F09],40.2%
17,O=C1Nc2ccc(S(=O)(=O)N3CCOCC3)cc2C1=Cc1ccc(Cl)cc1Cl [10735/F10],40.0%
18,O=C1Nc2ccc(S(=O)(=O)N3CCOCC3)cc2C1=Cc1ccc(-c2ccccc2)cc1 [10735/F11],34.6%
19,Cc1ccccc1C=C1C(=O)Nc2ccc(CCCl)cc21 [10735/G02],5.1%
20,O=C1Nc2ccc(CCCl)cc2C1=Cc1ccc(F)c(F)c1 [10735/G03],6.8%
21,O=C1Nc2ccc(CCCl)cc2C1=Cc1cc(F)cc(F)c1 [10735/G04],15.6%
22,O=C1Nc2ccc(CCCl)cc2C1=Cc1cccc(C(F)(F)F)c1 [10735/G05],8.8%
23,O=C1Nc2ccc(CCCl)cc2C1=Cc1cc(C(F)(F)F)cc(C(F)(F)F)c1 [10735/G06],18.5%

# Reference: patent US20020026053A1, “Novel 3-(substituted) -2- indolinones compounds and use thereof as inhibitors of protein kinase activity” (priority 1997, published 2002)
